Experimental data reported in PMC3032886, “Cell-Penetrant, Nanomolar O-GlcNAcase Inhibitors Selective against Lysosomal Hexosaminidases” (Chemistry & Biology, 2010).
Like-named read-outs stand apart in the source and are kept apart here.

Experiments:
endogenous hOGA [1] = target: T1, endogenous hOGA (Homo sapiens, UniProt O60502); experiment: Cellular O-GlcNAcylation western blot (CTD110.6 antibody), densitometry; format: cell-based; details: HEK293 cells, 6 hr; for EC50: densitometry, read-out: EC50 increase of cellular O-GlcNAcylation (western blot)
T1 construct: activity on endogenous hOGA in a cell-based assay with HEK293 cells; endogenous in cells; host or cells: HEK293
T1 sequence (O60502 1-916): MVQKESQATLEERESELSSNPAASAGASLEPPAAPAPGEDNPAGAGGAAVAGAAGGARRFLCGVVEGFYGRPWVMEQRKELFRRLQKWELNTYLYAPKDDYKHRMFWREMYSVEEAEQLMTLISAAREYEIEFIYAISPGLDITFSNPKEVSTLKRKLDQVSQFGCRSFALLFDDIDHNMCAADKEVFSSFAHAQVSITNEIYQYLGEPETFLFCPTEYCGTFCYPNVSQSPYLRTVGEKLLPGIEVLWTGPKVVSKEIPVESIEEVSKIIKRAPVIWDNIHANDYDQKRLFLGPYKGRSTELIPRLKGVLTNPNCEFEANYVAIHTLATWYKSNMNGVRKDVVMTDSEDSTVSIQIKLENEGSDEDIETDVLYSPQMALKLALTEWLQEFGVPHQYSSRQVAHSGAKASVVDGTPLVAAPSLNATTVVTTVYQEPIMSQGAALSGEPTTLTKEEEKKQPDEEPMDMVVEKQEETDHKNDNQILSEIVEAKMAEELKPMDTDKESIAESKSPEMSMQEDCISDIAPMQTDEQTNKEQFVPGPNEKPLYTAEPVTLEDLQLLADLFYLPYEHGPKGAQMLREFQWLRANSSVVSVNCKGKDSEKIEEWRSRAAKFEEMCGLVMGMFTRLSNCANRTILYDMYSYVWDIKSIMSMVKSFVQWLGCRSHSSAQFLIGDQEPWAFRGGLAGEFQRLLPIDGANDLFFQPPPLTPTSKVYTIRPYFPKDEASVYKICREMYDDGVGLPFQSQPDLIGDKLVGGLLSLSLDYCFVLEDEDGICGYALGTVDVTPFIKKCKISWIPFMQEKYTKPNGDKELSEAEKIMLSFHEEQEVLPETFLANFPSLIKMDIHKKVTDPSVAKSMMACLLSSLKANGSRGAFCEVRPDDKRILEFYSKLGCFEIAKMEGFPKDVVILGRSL
Experimental: (§1) The novel GlcNAcstatin derivatives were investigated for their activity on endogenous hOGA in a cell-based assay with HEK293 cells. […] Furthermore, we determined the EC50 of GlcNAcstatins G and H by O-GlcNAc microscopy assay (Figure 3B; see Figure S1 available online). Elevated total O-GlcNAc levels in HEK293 cells were quantified and normalized over a reference DAPI signal.
For the O-GlcNAc western blots, HEK293 cells were cultured and treated with GlcNAcstatin derivatives as described previously ([Dorfmueller et al., 2009]). Cell lysates were separated by SDS PAGE, and O-GlcNAcylation was detected by western blotting with the anti-O-GlcNAc CTD110.6 antibody and quantified ([Dorfmueller et al., 2009]). To calculate the EC50 values of GlcNAcstatins C, F, and G, the data, background corrected with the untreated cells, were plotted against the inhibitor concentrations using the program GraphPad Prism (http://www.graphpad.com).

hHexA/B [2] = experiment: hHexA/B inhibition, fluorogenic 4MU-NAG substrate; format: biochemical, human; details: for Ki: read-out: Ki hHex A/B
CpOGA-wild-type [3] = target: T2, CpOGA-wild-type (Clostridium perfringens, UniProt Q0TR53); details: cited from earlier work
T2 sequence (Q0TR53 31-624 limits assumed): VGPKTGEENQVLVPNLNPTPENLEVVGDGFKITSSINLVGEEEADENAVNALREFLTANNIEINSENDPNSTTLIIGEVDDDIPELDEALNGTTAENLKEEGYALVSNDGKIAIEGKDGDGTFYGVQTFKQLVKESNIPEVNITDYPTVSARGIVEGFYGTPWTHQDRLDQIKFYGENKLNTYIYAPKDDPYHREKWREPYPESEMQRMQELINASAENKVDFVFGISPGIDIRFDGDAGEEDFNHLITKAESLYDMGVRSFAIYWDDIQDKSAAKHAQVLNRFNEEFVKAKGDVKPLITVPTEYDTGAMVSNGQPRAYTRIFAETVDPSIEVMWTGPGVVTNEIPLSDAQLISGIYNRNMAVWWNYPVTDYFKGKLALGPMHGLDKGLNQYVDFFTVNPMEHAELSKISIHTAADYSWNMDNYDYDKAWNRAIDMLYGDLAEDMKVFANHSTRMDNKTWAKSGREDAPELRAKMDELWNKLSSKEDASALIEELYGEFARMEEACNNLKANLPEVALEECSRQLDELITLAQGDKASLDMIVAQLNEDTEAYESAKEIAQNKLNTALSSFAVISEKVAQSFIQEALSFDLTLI

hOGA = target: T3, hOGA (Homo sapiens, UniProt O60502); experiment: hOGA steady-state kinetics, fluorogenic assay, competitive inhibition fit; format: biochemical
T3 construct: made in house
T3 sequence (O60502 1-916): T1 sequence (O60502 1-916)

CpOGA-wild-type [4] = target: T2, CpOGA-wild-type; experiment: biochemical; parameters: species or system C. perfringens
endogenous hOGA [5] = target: T1, endogenous hOGA; experiment: O-GlcNAc microscopy assay (RL2 immunostaining, IN Cell Analyzer); format: cell-based; details: HEK293 cells, 6 hr, normalized over DAPI; read-out: EC50 total O-GlcNAc levels (microscopy assay)
Experimental: as §1
For the microscopy studies, HEK293 cells were seeded in clear flat-bottom 96 well assay plates (Corning 3340) and grown for 12 hr at 37°C under 5% CO2. Cells were treated with concentrations of GlcNAcstatins G and H (1% final DMSO concentration) for 6 hr. Cells were washed twice with 50 μl PBS and fixed in 3.7% formaldehyde for 10 min at 37°C. After washing with TBST (0.1% Triton X-100) and permeabilized for further 10 min, the cells were blocked with 2% BSA and 0.1% normal donkey serum in TBST for 1 hr at RT, followed by washing twice with TBST. Cells were immunostained with the RL2 O-GlcNAc antibody (1/500) for 12 hr at 4°C and fluorescent secondary (1/500) for 1 hr at RT. Cells were further washed twice with TBS before incubation with DAPI (5 μg/ml) and CellMask (1/25000). Cells were washed twice with TBS and stored in 50 μl PBS. Images were taken and analyzed with the IN Cell Analyzer 1000 system (GE Healthcare).

hHexA/B [6] = details: read-out: Ki hHex A/B; cited from earlier work

| Molecule | EC50 (endogenous hOGA [1]) [µM] | Ki (hHexA/B [2]) [µM] | Ki (hOGA; physiological pH 7.3) [µM] | Ki (CpOGA-wild-type [4]) [pM] | EC50 (endogenous hOGA [5]) [µM] | Ki (hHexA/B [6]) [µM] | also measured |
| --- | --- | --- | --- | --- | --- | --- | --- |
| CC(C)C(=O)N[C@H]1c2nc(CCc3ccccc3)cn2[C@H](CO)[C@@H](O)[C@@H]1O [GlcNAcstatin C] | 0.02 | 0.6 ± 0.1 | 0.0032 ± 0.0009 |  |  |  | Ki (CpOGA-wild-type [3]): 4.6 ± 0.2 pM; pH optimum of hOGA inhibition (hOGA; McIlvaine buffer, pH range 4.9–8.1, 1/Ki versus pH): 6.6; Ki (hOGA; pH 6.6 (maximum potency)): 0.0029 µM |
| O=C(CCS)N[C@H]1c2nc(CCc3ccccc3)cn2[C@H](CO)[C@@H](O)[C@@H]1O [GlcNAcstatin F] | 0.29 | 11 ± 0.6 | 0.0112 ± 0.0014 | 3.2 ± 0.2 |  |  |  |
| C=CC=CC(=O)NC1c2nc(CCc3ccccc3)cn2C(CO)C(O)C1O (stereo not drawn) [GlcNAcstatin G] | 0.02 | > 3700 | 0.0041 ± 0.0007 | 7.8 ± 0.7 | 0.003 |  | concentration in culture media inducing maximum levels of O-GlcNAcylation (endogenous hOGA [1]; western blot): 100 nM; IC50 (hHexA/B [2]): ~7000 µM |
| CCCCC(=O)N[C@H]1c2nc(CCc3ccccc3)cn2[C@H](CO)[C@@H](O)[C@@H]1O [GlcNAcstatin H] |  |  | 0.0026 ± 0.0003 |  | 0.042 |  | Ki (hHexA/B [2]; Cheng-Prusoff, approximate values obtained after including an artificial 100% inhibition point (footnote d)): 100 ± 30 µM; Selectivity (hHexA/B/hOGA) (hOGA; ratio of Ki hHexA/B to Ki hOGA): 35,000 |
| CC(=O)N[C@H]1/C(=N/OC(=O)Nc2ccccc2)O[C@H](CO)[C@@H](O)[C@@H]1O [PUGNAc, reference compound] |  |  |  | 5400 ± 400 |  | 0.036 |  |
| Thiamet-G |  |  |  |  |  | 750 |  |
